Source: article PMC4956231, “Molecular Mechanisms for Drug Hypersensitivity Induced by the Malaria Parasite’s Chloroquine Resistance Transporter” (PLoS Pathogens, 2016)
Where “and” joins values, the source holds several entries; their conditions need not be identical. Identical values can stand only once.

How the values were obtained:
C4^Dd2 (PfCRT^Dd2) = experiment: P. falciparum H+ efflux assay (DV alkalinization rate); assay type: cell-based, Plasmodium falciparum
Description: (§1) Saponin-isolated trophozoite-stage parasites containing the membrane-impermeant pH-sensitive fluorescent indicator fluorescein-dextran (10,000 MW; Life Technologies) in their DVs were prepared as outlined elsewhere. The isolated parasites were washed and suspended in a saline solution (125 mM NaCl, 5 mM KCl, 1 mM MgCl2, 20 mM glucose, 25 mM HEPES; pH 7.1) at a density of 1–3 × 10^7 cells/mL. The fluorometry experiments were performed as described previously. The pH of the DV was monitored at 37°C using a PerkinElmer Life Sciences LS50B fluorometer with a dual excitation Fast Filter accessory (excitation 490 and 450 nm; emission 520 nm). The experiments entailed monitoring the alkalinization of the DV upon addition of the V-type H^+-ATPase inhibitor concanamycin A (100 nM; Sigma-Aldrich), in the presence or absence of the drugs of interest. Half-times for DV alkalinization (t1/2) were calculated as outlined elsewhere. In all cases, five independent experiments were performed on different days.

C6^7G8 (PfCRT^7G8) = experiment: as above; assay type: cell-based, Plasmodium falciparum
Description: as §1

C2^GC03 (PfCRT^3D7) = experiment: as above; assay type: cell-based, Plasmodium falciparum
Description: as §1

C2^GC03 = experiment: P. falciparum drug susceptibility (parasite proliferation, SYBR Safe); assay type: cell-based; conditions: Plasmodium falciparum, Control, 72 h
Description: (§2) Parasite proliferation was measured in 96-well plates using a fluorescent DNA-intercalating dye and a protocol described in detail previously. Briefly, cell suspensions containing erythrocytes infected with ring-stage parasites (hematocrit and parasitemia of approximately 2% and 1%, respectively) were incubated at 37°C for 72 h. The samples were frozen, thawed, and then processed by the addition of 100 μL (per well) of SYBR Safe DNA Gel Stain (Molecular Probes; 0.2 μL/mL) in a lysis buffer (20 mM Tris, 5 mM EDTA, 0.008% w/v saponin, and 0.08% v/v Triton X-100; pH 7.5). The fluorescence emanating from each well was measured immediately using a Tecan Infinite M1000 PRO microplate reader (excitation 490 nm; emission 520 nm) and the average fluorescence from wells containing the highest concentration of the drug was subtracted from the resulting values. The level of parasite proliferation in the presence of each drug concentration was expressed as a percentage of the proliferation measured in the absence of the drug for which the IC50 was being determined. The IC50s were determined in SigmaPlot by a least-squares fit of the equation y = a/ [1 ([drug]/IC50)c] to the data, where y is the percent parasite proliferation, a is the maximum change in the percent parasite proliferation, and c is a fitted constant. In all cases, five independent experiments were performed (on different days), and within each experiment measurements were averaged from three replicates.

Dd2 = experiment: as above; assay type: cell-based; conditions: Plasmodium falciparum, DD2, 72 h
Description: as §2

C4^Dd2 = experiment: as above; assay type: cell-based; conditions: Plasmodium falciparum, Control, 72 h
Description: as §2

3D7 = experiment: as above; assay type: cell-based; conditions: Plasmodium falciparum, Control, 72 h
Description: as §2

C6^7G8 = experiment: as above; assay type: cell-based; conditions: Plasmodium falciparum, Control, 72 h
Description: as §2

76I,369F-PfCRT^K1 = 76I,369F-PfCRT^K1 (Plasmodium falciparum, UniProt Q9N623, A220S/K76I/M74I/N326S/N75E/Q271E/R371I/V369F); experiment: [3H]drug transport into Xenopus oocytes expressing PfCRT; assay type: cell-based
Chain of 76I,369F-PfCRT^K1 (Q9N623 whole entry A220S/K76I/M74I/N326S/N75E/Q271E/R371I/V369F): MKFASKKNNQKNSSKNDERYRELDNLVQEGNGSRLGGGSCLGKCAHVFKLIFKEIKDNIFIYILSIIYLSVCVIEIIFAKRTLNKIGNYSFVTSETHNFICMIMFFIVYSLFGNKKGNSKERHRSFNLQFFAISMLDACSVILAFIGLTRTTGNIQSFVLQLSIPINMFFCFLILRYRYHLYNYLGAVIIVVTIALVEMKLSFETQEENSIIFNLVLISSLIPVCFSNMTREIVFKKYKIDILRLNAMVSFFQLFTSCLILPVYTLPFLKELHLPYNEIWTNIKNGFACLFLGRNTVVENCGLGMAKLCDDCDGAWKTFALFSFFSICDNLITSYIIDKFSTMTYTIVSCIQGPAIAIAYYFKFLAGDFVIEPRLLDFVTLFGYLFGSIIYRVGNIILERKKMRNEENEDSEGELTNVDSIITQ
Description: (§3) For each treatment, 10 oocytes were transferred to a 5 mL polystyrene round bottom tube (Falcon) and washed twice with 3.5 mL of ND96 buffer, with the residual buffer removed by pipette. […] The assay was terminated by removing the reaction buffer with a pipette and washing the oocytes twice with 3.5 mL of ice-cold ND96 buffer. Each oocyte was transferred to a separate well of a white 96-well plate (NUNC or PerkinElmer), incubated overnight at room temperature in 30 μL of 10% SDS, and mixed on an orbital shaker the following day for approximately 5 min. The lysed oocyte was then combined with 150 μL of MicroScint-40 microscintillant (PerkinElmer), the plate covered with a TopSeal-A (PerkinElmer), and the radioactivity measured with a PerkinElmer MicroBeta^2 microplate liquid scintillation analyzer.

[1] = system: P. falciparum line 106/1^76I,352R; conditions: 106/1^76I,352R (76I,352R-PfCRT^K1); IC50 in line divided by IC50 in drug-sensitive reference strain; cited from earlier work
[2] = system: P. falciparum line 106/1^76I; conditions: 106/1^76I (76I-PfCRT^K1); IC50 in line divided by IC50 in drug-sensitive reference strain; cited from earlier work
noninjected oocytes = experiment: [3H]drug uptake into noninjected oocytes (background accumulation); assay type: cell-based, Xenopus laevis; conditions: for rate of CQ uptake: [3H]CQ […]
Description: as §3

[3] = system: P. falciparum line 106/1^76N; conditions: 106/1^76N (76N-PfCRT^K1); IC50 in line divided by IC50 in drug-sensitive reference strain; cited from earlier work
[4] = system: P. falciparum line 106/1^76I,369F; conditions: 106/1^76I,369F (76I,369F-PfCRT^K1); IC50 in line divided by IC50 in drug-sensitive reference strain; cited from earlier work
76I-PfCRT^K1 = 76I-PfCRT^K1 (Plasmodium falciparum, UniProt Q9N623, A220S/K76I/M74I/N326S/N75E/Q271E/R371I); assay type: cell-based
Chain of 76I-PfCRT^K1 (Q9N623 whole entry A220S/K76I/M74I/N326S/N75E/Q271E/R371I): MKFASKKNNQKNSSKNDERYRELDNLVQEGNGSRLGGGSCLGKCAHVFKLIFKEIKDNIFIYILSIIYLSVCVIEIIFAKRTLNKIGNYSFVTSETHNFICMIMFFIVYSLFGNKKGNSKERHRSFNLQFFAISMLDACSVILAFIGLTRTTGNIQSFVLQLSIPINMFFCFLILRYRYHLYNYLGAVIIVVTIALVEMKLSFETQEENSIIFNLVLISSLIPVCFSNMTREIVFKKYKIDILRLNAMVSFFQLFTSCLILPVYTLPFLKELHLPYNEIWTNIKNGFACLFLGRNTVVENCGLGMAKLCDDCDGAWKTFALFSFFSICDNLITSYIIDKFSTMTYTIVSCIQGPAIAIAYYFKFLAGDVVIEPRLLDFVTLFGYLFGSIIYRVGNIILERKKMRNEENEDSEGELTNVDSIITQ
Description: as §3

PfCRT^K1 = experiment: [3H]drug transport into Xenopus oocytes expressing PfCRT; assay type: cell-based, Plasmodium falciparum
Description: as §3

**Q.** With CCN(CC)CCCC(C)Nc1ccnc2cc(Cl)ccc12 (centres unmarked) [CQ, chloroquine] as the molecule, how does the “effect on rate of DV alkalinization” value (C4^Dd2 (PfCRT^Dd2); C4^Dd2 (CQ-resistant), CQ […], concanamycin A 100 nM) read?
**A.** The value was “increased”.

**Q.** What about the “effect on rate of DV alkalinization” value (C6^7G8 (PfCRT^7G8); C6^7G8 (CQ-resistant), CQ […], concanamycin A 100 nM) of the same molecule?
**A.** Its value is “increased”.

**Q.** And the “effect on rate of DV alkalinization” value (C2^GC03 (PfCRT^3D7); C2^GC03 (CQ-sensitive), CQ […], concanamycin A 100 nM)?
**A.** Its value is “without effect”.

**Q.** And the IC50 (C2^GC03)?
**A.** The IC50 was 0.027 ± 0.0016 µM.

**Q.** And the IC50 (Dd2)?
**A.** Its IC50 is 0.151 ± 0.0048 µM.

**Q.** And the IC50 (C4^Dd2)?
**A.** Its IC50 is 0.149 ± 0.0046 µM.

**Q.** And the IC50 (3D7)?
**A.** Its IC50 is 0.025 ± 0.0011 µM.

**Q.** And the IC50 (C6^7G8)?
**A.** Its IC50 is 0.087 ± 0.0021 µM.

**Q.** What about the “Apparent Vmax” value (76I,369F-PfCRT^K1; transport via 76I,369F-PfCRT^K1 in oocytes, CQ pH 6.0) of the same molecule?
**A.** The value was 13.8 pmol per oocyte/h and 13.8 ± 1.3^c (5) pmol per oocyte/h.

**Q.** What about the “Drug susceptibility (In vitro resistance index)” value [1] of the same molecule?
**A.** The value was 1.58 ± 0.02.

**Q.** And the “Drug susceptibility (In vitro resistance index)” value [2]?
**A.** The value was 15.66 ± 2.20.

**Q.** And the “rate of CQ uptake” value (noninjected oocytes; pH 5.5, 15 μM unlabeled CQ (S5 Fig))?
**A.** The value was 1.41 ± 0.02 pmol per oocyte/h.

**Q.** What about the “rate of CQ uptake” value (noninjected oocytes; pH 6.0, 15 μM unlabeled CQ (Fig 2A)) of the same molecule?
**A.** The value was 0.98 ± 0.13 pmol per oocyte/h.

**Q.** What about the “Drug susceptibility (In vitro resistance index)” value [3] of the same molecule?
**A.** Its value is 8.60 ± 0.90.

**Q.** What about the “Drug susceptibility (In vitro resistance index)” value [4] of the same molecule?
**A.** The value was 3.53.

**Q.** What about the “Apparent Vmax” value (76I-PfCRT^K1; transport via 76I-PfCRT^K1 in oocytes, CQ pH 6.0, quinine and quinidine pH 5.0) of the same molecule?
**A.** The value was 29.3 pmol per oocyte/h and 29.3 ± 7.2^c,f (5) pmol per oocyte/h.

**Q.** And the “rate of CQ uptake” value (PfCRT^K1; oocytes expressing PfCRT^K1, [3H]CQ […], pH 6.0, 15 μM unlabeled CQ (Fig 2A))?
**A.** Its value is 6.75 ± 0.94 pmol per oocyte/h.

**Q.** And the “Apparent Vmax” value (PfCRT^K1; transport via PfCRT^K1 in oocytes, CQ pH 6.0, quinine and quinidine pH 5.0)?
**A.** The value was 72 ± 3 (9) pmol per oocyte/h.

**Q.** What about the Km (PfCRT^K1; transport via PfCRT^K1 in oocytes, CQ pH 6.0, quinine and quinidine pH 5.0, 76K-PfCRT^K1 control subtracted, read-out: Apparent Km) of the same molecule?
**A.** The Km was 282 ± 5 µM.

**Q.** Which “substrate of PfCRT in situ (rate of DV alkalinization)” value (“substrate of PfCRT in situ” below) (C4^Dd2 (PfCRT^Dd2); C4^Dd2, PfCRT^Dd2, amantadine 10 μM) does the source give for NC12CC3CC(CC(C3)C1)C2 [amantadine] here?
**A.** Its value is “is a substrate”.

**Q.** And the “substrate of PfCRT in situ” value (C6^7G8 (PfCRT^7G8); C6^7G8, PfCRT^7G8, amantadine 10 μM)?
**A.** The value was “is a substrate”.

**Q.** And the “substrate of PfCRT in situ” value (C2^GC03 (PfCRT^3D7); C2^GC03, wild-type PfCRT (PfCRT^3D7), amantadine 10 μM)?
**A.** The value was “not of wild-type PfCRT”.

**Q.** What about the IC50 (C2^GC03) of the same molecule?
**A.** Its IC50 is 335 ± 9.5 µM.

**Q.** What about the IC50 (Dd2) of the same molecule?
**A.** The IC50 was 11 ± 0.1 µM.

**Q.** And the IC50 (C4^Dd2)?
**A.** The IC50 was 8.4 ± 0.06 µM.

**Q.** And the IC50 (3D7)?
**A.** The IC50 was 344 ± 8.9 µM.

**Q.** And the IC50 (C6^7G8)?
**A.** Its IC50 is 43 ± 2.9 µM.

**Q.** What about the amantadine transport activity (76I,369F-PfCRT^K1; oocytes expressing 76I,369F-PfCRT^K1, pH 5.0, 50 μM unlabeled amantadine) of the same molecule?
**A.** Its amantadine transport activity is “very low (but statistically significant) level”.

**Q.** And the “rate of amantadine uptake” value (noninjected oocytes; [3H]amantadine 0.146 μM, pH 5.0, 50 μM unlabeled amantadine)?
**A.** Its value is 5.4 ± 0.9 nmol per oocyte/h.

**Q.** What about the “[3H]amantadine accumulation relative to noninjected oocytes” value (76I-PfCRT^K1; oocytes expressing 76I-PfCRT^K1, pH 5.0, 50 μM unlabeled amantadine) of the same molecule?
**A.** Its value is “marked increase”.

**Q.** And the “rate of amantadine uptake” value (PfCRT^K1; PfCRT^K1-expressing oocytes, [3H]amantadine 0.146 μM, pH 5.0, 50 μM unlabeled amantadine)?
**A.** The value was 12 ± 2.8 nmol per oocyte/h.

**Q.** And the “[3H]amantadine accumulation relative to noninjected oocytes” value (PfCRT^K1; oocytes expressing PfCRT^K1, pH 5.0, 50 μM unlabeled amantadine)?
**A.** The value was “marked increase”.
